According to article PMC11855827, “High-Throughput Screening of Five Compound Libraries for Anthelmintic Activity and Toxicity Leads to the Discovery of Two Flavonoid Compounds” (International Journal of Molecular Sciences, 2025):
Where two headings read alike, the source gives them in different places.

Tested on: C. elegans
Assay: microbe, parasite or virus in culture
Settings: Caenorhabditis elegans
[1] = 0 h, read-out: Percentage of motility inhibition 0 h, Table S2, C. elegans SS assay, 110 μM, 0 h, averages of 4 data points
[2] = 24 h, read-out: Percentage of motility inhibition 24 h, Table S2, C. elegans SS assay, 110 μM, 24 h, averages of 4 data points

CN1CCCN=C1/C=C/c1cccs1 [Pyrantel pamoate, reference compound]
inhibition at 110 µM (0 h, read-out: Inhibition (%) 110 μM (0 h), C. elegans L4 motility, 110 μM, 0 h, mean ± SD of four experiments): 94%
inhibition at 110 µM (24 h, read-out: Inhibition (%) 110 μM (24 h), C. elegans L4 motility, 110 μM, 24 h, mean ± SD of four experiments): 18 ± 18%

NC(=O)c1cnccn1 [Pyrazinamide]
inhibition at 110 µM [1]: 4%
inhibition at 110 µM [2]: 13%

Cc1ncc(COP(=O)(O)O)c(C=O)c1O [Pyridoxal phosphate]
inhibition at 110 µM [1]: 11%
inhibition at 110 µM [2]: 4%

Cc1ncc(CO)c(CO)c1O [Pyridoxine]
inhibition at 110 µM [1]: 8%
inhibition at 110 µM [2]: 0%

CCc1nc(N)nc(N)c1-c1ccc(Cl)cc1 [Pyrimethamine]
inhibition at 110 µM [1]: 35%
inhibition at 110 µM [2]: 2%

O=Cc1ccc[nH]1 [Pyrrole‐2‐carboxaldehyde]
inhibition at 110 µM [1]: 0%
inhibition at 110 µM [2]: 6%

O=c1c(O)c(-c2ccc(O)c(O)c2)oc2cc(O)c(O)c(O)c12 [Quercetagetin]
inhibition at 110 µM (0 h, read-out: Percentage of motility inhibition 0 h): 15%
inhibition at 110 µM (24 h, read-out: Percentage of motility inhibition 24 h): 10%

O=c1c(O)c(-c2ccc(O)c(O)c2)oc2cc(O)cc(O)c12 [Quercetin]
inhibition at 110 µM [1]: 24%
inhibition at 110 µM [2]: 11%

O=c1c(O)c(-c2ccc(O)c(O)c2)oc2cc(O[C@@H]3O[C@H](CO)[C@@H](O)[C@H](O)[C@H]3O)cc(O)c12 [Quercimeritrin]
inhibition at 110 µM [1]: 0%
inhibition at 110 µM [2]: 3%

C[C@@H]1O[C@@H](Oc2c(-c3ccc(O)c(O)c3)oc3cc(O)cc(O)c3c2=O)[C@H](O)[C@H](O)[C@H]1O [Quercitrin]
inhibition at 110 µM [1]: 4%
inhibition at 110 µM [2]: 0%

CC1(C)CC[C@]2(C(=O)O)[C@H](O)C[C@]3(C)C(=CC[C@@H]4[C@@]5(C)CC[C@H](O)[C@@](C)(C=O)[C@@H]5CC[C@]43C)[C@@H]2C1 [Quillaic acid]
inhibition at 110 µM [1]: 14%
inhibition at 110 µM [2]: 16%

C=C[C@H]1C[N@@]2CC[C@H]1C[C@@H]2[C@@H](O)c1ccnc2ccc(OC)cc12 [Quinidine]
inhibition at 110 µM [1]: 23%
inhibition at 110 µM [2]: 3%

O=C(O)c1cccnc1C(=O)O [Quinolinic acid]
inhibition at 110 µM [1]: 0%
inhibition at 110 µM [2]: 0%

O=C(CBr)N1CC([N+](=O)[O-])([N+](=O)[O-])C1 [RRx‐001]
inhibition at 110 µM [1]: 19%
inhibition at 110 µM [2]: 6%

O=C(Nc1ccccc1F)N[C@H]1N=C(c2ccccc2)c2ccccc2NC1=O [RSV604]
inhibition at 110 µM [1]: 37%
inhibition at 110 µM [2]: 15%

O=C(Nc1ccc(Oc2ccc(Cl)cc2)c(Cl)c1)c1cc(I)cc(I)c1O [Rafoxanide]
inhibition at 110 µM [1]: 8%
inhibition at 110 µM [2]: 1%

C=C[C@]1(C)C[C@@H](OC(=O)CS[C@@H]2C[C@H]3CC[C@@H](C2)N3C)[C@]2(C)[C@H](C)CC[C@]3(CCC(=O)[C@H]32)[C@@H](C)[C@@H]1O [Retapamulin]
inhibition at 110 µM [1]: 27%
inhibition at 110 µM [2]: 9%

CC1=C(/C=C/C(C)=C/C=C/C(C)=C/C(=O)O)C(C)(C)CCC1 [Retinoic acid]
inhibition at 110 µM [1]: 18%
inhibition at 110 µM [2]: 40%

CC(=O)OC/C=C(C)/C=C/C=C(C)/C=C/C1=C(C)CCCC1(C)C [Retinyl acetate]
inhibition at 110 µM [1]: 0%
inhibition at 110 µM [2]: 0%

O=c1c(O[C@@H]2OC[C@@H](O)[C@H](O)[C@H]2O)c(-c2ccc(O)c(O)c2)oc2cc(O)cc(O)c12 [Reynoutrin]
inhibition at 110 µM [1]: 0%
inhibition at 110 µM [2]: 7%

COc1cc(O)c2c(=O)c(O)c(-c3ccc(O)c(O)c3)oc2c1 [Rhamnetin]
inhibition at 110 µM [1]: 29%
inhibition at 110 µM [2]: 12%

CC[C@H]1CN2CC[C@]3(C(=O)Nc4ccccc43)[C@@H]2C[C@@H]1/C(=C\OC)C(=O)OC [Rhynchophylline]
inhibition at 110 µM [1]: 0%
inhibition at 110 µM [2]: 8%

Cc1cc2nc3c(=O)[nH]c(=O)nc-3n(C[C@H](O)[C@H](O)[C@H](O)CO)c2cc1C [Riboflavin]
inhibition at 110 µM [1]: 3%
inhibition at 110 µM [2]: 6%

CO[C@H]1/C=C/O[C@@]2(C)Oc3c(C)c(O)c4c(c3C2=O)C2=NC3(CCN(CC(C)C)CC3)NC2=C(NC(=O)/C(C)=C\C=C\[C@H](C)[C@H](O)[C@@H](C)[C@@H](O)[C@@H](C)[C@H](OC(C)=O)[C@@H]1C)C4=O [Rifabuti n]
inhibition at 110 µM [1]: 41%
inhibition at 110 µM [2]: 2%

CO[C@H]1/C=C/O[C@@]2(C)Oc3c(C)c(O)c4c(O)c(c(/C=N/N5CCN(C)CC5)c(O)c4c3C2=O)NC(=O)/C(C)=C\C=C\[C@H](C)[C@H](O)[C@@H](C)[C@@H](O)[C@@H](C)[C@H](OC(C)=O)[C@@H]1C [Rifampicin]
inhibition at 110 µM [1]: 13%
inhibition at 110 µM [2]: 4%

CO[C@H]1/C=C/O[C@@]2(C)Oc3c(C)c(O)c4c(O)c(c(/C=N/N5CCN(C6CCCC6)CC5)c(O)c4c3C2=O)NC(=O)/C(C)=C\C=C\[C@H](C)[C@H](O)[C@@H](C)[C@@H](O)[C@@H](C)[C@H](OC(C)=O)[C@@H]1C [Rifapen tine]
inhibition at 110 µM [1]: 9%
inhibition at 110 µM [2]: 13%

CO[C@H]1/C=C/O[C@@]2(C)Oc3c(C)c(O)c4c(O)c(c5c(nc6cc(C)ccn65)c4c3C2=O)NC(=O)/C(C)=C\C=C\[C@H](C)[C@H](O)[C@@H](C)[C@@H](O)[C@@H](C)[C@H](OC(C)=O)[C@@H]1C [Rifaximin]
inhibition at 110 µM [1]: 7%
inhibition at 110 µM [2]: 1%

Cc1cc(/C=C/C#N)cc(C)c1Nc1ccnc(Nc2ccc(C#N)cc2)n1 [Rilpivirine]
inhibition at 110 µM [1]: 32%
inhibition at 110 µM [2]: 20%

CC(C)c1nc(CN(C)C(=O)N[C@H](C(=O)N[C@@H](Cc2ccccc2)C[C@H](O)[C@H](Cc2ccccc2)NC(=O)OCc2cncs2)C(C)C)cs1 [Ritonavir]
inhibition at 110 µM [1]: 2%
inhibition at 110 µM [2]: 0%

O=c1c(O)c(-c2cc(O)c(O)c(O)c2)oc2cc(O)ccc12 [Robinetin]
inhibition at 110 µM [1]: 39%
inhibition at 110 µM [2]: 7%

CC1OC(OCC2OC(Oc3c(-c4ccc(O)cc4)oc4cc(OC5OC(C)C(O)C(O)C5O)cc(O)c4c3=O)C(O)C(O)C2O)C(O)C(O)C1O (centres unmarked) [Robinin]
inhibition at 110 µM [1]: 31%
inhibition at 110 µM [2]: 8%

COc1c2ccoc2nc2c(O)cccc12 [Robustine]
inhibition at 110 µM [1]: 16%
inhibition at 110 µM [2]: 7%

CN1CCc2cc3c(c4c2C1Cc1ccccc1-4)OCO3 (centres unmarked) [Roemerine]
inhibition at 110 µM [1]: 0%
inhibition at 110 µM [2]: 0%

Cn1c([N+](=O)[O-])cnc1COC(N)=O [Ronidazole]
inhibition at 110 µM [1]: 9%
inhibition at 110 µM [2]: 0%

C[C@@H]1CC[C@]2(C(=O)O)CC[C@]3(C)C(=CC[C@@H]4[C@@]5(C)CC[C@H](O)[C@@](C)(CO)[C@@H]5CC[C@]43C)[C@@H]2[C@]1(C)O [Rotundic acid]
inhibition at 110 µM [1]: 24%
inhibition at 110 µM [2]: 45%

CC[C@H]1OC(=O)[C@H](C)[C@@H](O[C@H]2C[C@@](C)(OC)[C@@H](O)[C@H](C)O2)[C@H](C)[C@@H](O[C@@H]2O[C@H](C)C[C@H](N(C)C)[C@H]2O)[C@](C)(O)C[C@@H](C)/C(=N\OCOCCOC)[C@H](C)[C@@H](O)[C@]1(C)O [Roxithromycin]
inhibition at 110 µM [1]: 22%
inhibition at 110 µM [2]: 4%

CC[C@@]1(O)C(=O)OCc2c1cc1n(c2=O)Cc2cc3c([N+](=O)[O-])cccc3nc2-1 [Rubitecan]
inhibition at 110 µM [1]: 5%
inhibition at 110 µM [2]: 0%

C=C1C[C@@]23CC[C@H]4[C@@](C)(CCC[C@@]4(C)C(=O)O[C@@H]4O[C@H](CO)[C@@H](O)[C@H](O)[C@H]4O)[C@@H]2CC[C@]1(O[C@@H]1O[C@H](CO)[C@@H](O)[C@H](O)[C@H]1O)C3 [Rubusoside]
inhibition at 110 µM [1]: 0%
inhibition at 110 µM [2]: 18%

O=c1c2ccccc2nc2n1CCc1c-2[nH]c2ccccc12 [Rutaecarpine]
inhibition at 110 µM [1]: 0%
inhibition at 110 µM [2]: 24%

C[C@@H]1O[C@@H](OC[C@H]2O[C@@H](Oc3c(-c4ccc(O)c(O)c4)oc4cc(O)cc(O)c4c3=O)[C@H](O)[C@@H](O)[C@@H]2O)[C@H](O)[C@H](O)[C@H]1O [Rutin]
inhibition at 110 µM [1]: 4%
inhibition at 110 µM [2]: 0%

C=C1CCC2(C(C)C)CC12 (centres unmarked) [Sabinene]
inhibition at 110 µM [1]: 0%
inhibition at 110 µM [2]: 20%

C[C@H]1O[C@@H](O[C@H]2CC[C@@]3(C)[C@@H](CC[C@]4(C)[C@@H]3C=C[C@]35OC[C@@]6(CCC(C)(C)C[C@H]63)[C@@H](O)C[C@]54C)[C@]2(C)CO)[C@H](O)[C@@H](O[C@@H]2O[C@H](CO)[C@@H](O)[C@H](O)[C@H]2O)[C@H]1O [Saikosaponin A]
inhibition at 110 µM [1]: 2%
inhibition at 110 µM [2]: 4%

COc1cc(O)c2c(c1)O[C@H](c1ccc(O)cc1)CC2=O [Sakuranetin]
inhibition at 110 µM [1]: 19%
inhibition at 110 µM [2]: 18%

NC(=O)c1ccccc1O [Salicylamide]
inhibition at 110 µM [1]: 2%
inhibition at 110 µM [2]: 0%

O=C(Nc1ccccc1)c1ccccc1O [Salicylanilide]
inhibition at 110 µM [1]: 43%
inhibition at 110 µM [2]: 21%

O=C(O)c1ccccc1O [Salicylic acid]
inhibition at 110 µM [1]: 12%
inhibition at 110 µM [2]: 8%

COc1cc2c(cc1OC)[C@H](C)NCC2 [Salsolidine]
inhibition at 110 µM [1]: 0%
inhibition at 110 µM [2]: 0%

COc1ccc(-c2cc(=O)c3c(O)c(OC)c(OC)cc3o2)cc1 [Salvigenin]
inhibition at 110 µM [1]: 22%
inhibition at 110 µM [2]: 3%

O=c1cc(-c2ccc(O)cc2)oc2cc(O[C@@H]3O[C@H](CO)[C@@H](O)[C@H](O)[C@H]3O)c([C@@H]3O[C@H](CO)[C@@H](O)[C@H](O)[C@H]3O)c(O)c12 [Saponarin]
inhibition at 110 µM [1]: 1%
inhibition at 110 µM [2]: 1%

O=C1/C(=C/c2ccc(O)c(O)c2)COc2cc(O)ccc21 [Sappanone A]
inhibition at 110 µM [1]: 0%
inhibition at 110 µM [2]: 0%

CC(C)(C)NC(=O)[C@@H]1C[C@@H]2CCCC[C@@H]2CN1C[C@@H](O)[C@H](Cc1ccccc1)NC(=O)[C@H](CC(N)=O)NC(=O)c1ccc2ccccc2n1 [Saquinavir]
inhibition at 110 µM [1]: 37%
inhibition at 110 µM [2]: 0%

C[C@@H]1[C@H]2c3cc4c(cc3O[C@@]35OCOC3=CC(=O)[C@H](C[C@H]1C)[C@@H]25)OCO4 [Sauchinone]
inhibition at 110 µM [1]: 18%
inhibition at 110 µM [2]: 25%
